Data taken from patent publication US20240059703A1 (AMGEN INC., priority 2021, published 2024).

What was measured:
[1] = tested on: MIA PaCa-2 (human pancreatic carcinoma) cells; test: Cell Viability Assay (CellTiter-Glo), MIA PaCa-2; format: cell-based
Description: Serially-diluted compound or DMSO was added to the cells, and plates were incubated at 37° C., 5% CO2 for 72 h. Cell viability was measured using a CellTiter-Glo® Luminescent Cell Viability Assay kit (Promega) according to the manufacturer's protocol. The luminescence signal of treated samples was normalized to DMSO control, and data were analyzed using a 4-parameter logistic model to calculate IC50 values.

KRAS G12C = KRAS G12C (Homo sapiens (Human), UniProt P01116, C118A/G12C); test: 2 h coupled exchange assay; format: biochemical; settings: Avg 2 h Coupled exchange IC50, 2 h compound pre-incubation
Description: The term “2 h coupled exchange assay” or “20 h coupled exchange assay” as used herein refers to the assay described in the Section entitled “BIOLOGICAL EVALUATION.”

[2] = tested on: A549 (human lung carcinoma) cells; test: Cell Viability Assay (CellTiter-Glo), A549; format: cell-based
How it was run: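 Luminescent ATP read-out (CellTiter-Glo) after 72 h compound treatment of cells seeded overnight at 1.67E+04 cells/mL in RPMI 1640, 10% FBS; signal relative to DMSO, IC50 by 4-parameter logistic model.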

[3] = SOS-mediated nucleotide exchange

Chain of KRAS G12C (P01116 other isoform, or with tags, fused parts or gaps G12C/C118A): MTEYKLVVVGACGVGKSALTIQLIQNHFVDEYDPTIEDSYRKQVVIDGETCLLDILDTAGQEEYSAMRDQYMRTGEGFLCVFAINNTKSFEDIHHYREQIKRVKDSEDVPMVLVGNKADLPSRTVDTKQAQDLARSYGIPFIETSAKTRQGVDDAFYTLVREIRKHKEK

IC50 ([1]; Homo sapiens, MIA PaCa-2, 72 h) | IC50 (KRAS G12C) | IC50 ([2]; Homo sapiens, A549, 72 h) | IC50 (KRAS G12C; [3]) | IC50 ([1]; 72 h) | IC50 ([2]; 72 h) | Structure (SMILES)
1350 nM | 68 nM | > 5000 nM | – | – | – | C=CC(=O)N1CC2(CCN(c3nc4cc(-c5scnc5C)ccc4c(-c4ccccc4C)c3C#N)C2)C1 (single isomer, unassigned) [Example 19-11, (P)-4-(2-methylphenyl)-7-(4-methyl-1,3-thiazol-5-yl)-2-(2-(2-propenoyl)-2,6-diazaspiro[3.4]octan-6-yl)-3-quinolinecarbonitrile]
13400 nM | – | 13400 nM | 174000 nM | – | – | C=CC(=O)N1CC2(CCN(c3nc(-c4ccccc4F)c4c(n3)N(C)CCC4)C2)C1 [Example 1-33, 1-(6-(4-(2-fluorophenyl)-8-methyl-5,6,7,8-tetrahydropyrido[2,3-d]pyrimidin-2-yl)-2,6-diazaspiro[3,4]octan-2-yl)-2-propen-1-one]
831 nM | – | > 5000 nM | 78 nM | – | – | C=CC(=O)N1CC2(CCN(c3nc4c(c(-c5c(C)ccc6cnn(C)c56)c3C#N)C[C@H]3C[C@@H]4C3(C)C)C2)C1 (single isomer, unassigned) [Example 13-106]
1450 nM | 126 nM | > 5000 nM | – | – | – | C=CC(=O)N1CC2(CCN(c3nc4cc(-c5scnc5C)ccc4c(-c4ccccc4C)c3C#N)C2)C1 [Example 19-2, 4-(2-methylphenyl)-7-(4-methyl-1,3-thiazol-5-yl)-2-(2-(2-propenoyl)-2,6-diazaspiro[3.4]octan-6-yl)-3-quinolinecarbonitrile]
118 nM | 228 nM | 14400 nM | – | – | – | C=CC(=O)N1CC2(CCN(c3nc4c(c(-c5cccc(F)c5O)c3C)CC[C@@H](c3c(C)cnn3C)C4)C2)C1 [Example 14-94, 1-(6-((7R)-7-(1,4-dimethyl-1H-pyrazol-5-yl)-4-(3-fluoro-2-hydroxyphenyl)-3-methyl-5,6,7,8-tetrahydro-2-quinolinyl)-2,6-diazaspiro[3.4]octan-2-yl)-2-propen-1-one]
190 nM | – | > 5000 nM | 33 nM | – | – | C=CC(=O)N1CC2(CCN(c3nc4c(c(-c5cc(O)cc6ccccc56)c3C#N)COC(C)(C)C4)C2)C1 [Example 13-41, 4-(3-hydroxy-1-naphthalenyl)-7,7-dimethyl-2-(2-(2-propenoyl)-2,6-diazaspiro[3.4]octan-6-yl)-7,8-dihydro-5H-pyrano[4,3-b]pyridine-3-carbonitrile]
1610 nM | 65 nM | > 5000 nM | – | – | – | C=CC(=O)N1CC2(CCN(c3nc4c(c(-c5cc(O)ccc5C)c3F)C[C@H]3C[C@@H]4C3(C)C)C2)C1 [Example 14-50, 1-(6-((1R,9R)-5-fluoro-6-(5-hydroxy-2-methylphenyl)-10,10-dimethyl-3-azatricyclo[7.1.1.0^2,7]undeca-2,4,6-trien-4-yl)-2,6-diazaspiro[3.4]octan-2-yl)-2-propen-1-one]
1880 nM | – | 3120 nM | 601 nM | – | – | C=CC(=O)N1CC2(C1)CN(c1nc3c(F)cccc3c(-c3c(C)ccc4[nH]ncc34)c1C#N)CC2F (stereo not drawn) [Example 1-13, 8-fluoro-2-((8)-8-fluoro-2-(2-propenoyl)-2,6-diazaspiro[3.4]octan-6-yl)-4-(5-methyl-1H-indazol-4-yl)-3-quinolinecarbonitrile]
1090 nM | – | > 5000 nM | 44 nM | – | – | C=CC(=O)N1CC2(CCN(c3nc4c(c(-c5cc(O)cnc5Cl)c3C#N)C[C@H]3C[C@@H]4C3(C)C)C2)C1 [Example 12-35, (1R,9R)-6-(2-chloro-5-hydroxy-3-pyridinyl)-10,10-dimethyl-4-(2-(2-propenoyl)-2,6-diazaspiro[3.4]octan-6-yl)-3-azatricyclo[7.1.1.0^2,7] undeca-2,4,6-triene-5-carbonitrile]
401 nM | – | > 5000 nM | 78 nM | – | – | C=CC(=O)N1CC2(CCN(c3nc4c(c(-c5c(C)ccc6cnn(C)c56)c3C#N)CC[C@@H]3C[C@H]43)C2)C1 (single isomer, unassigned) [Example 13-136, (6a,7a)-4-(1,6-dimethyl-1H-indazol-7-yl)-2-(2-(2-propenoyl)-2,6-diazaspiro[3.4]octan-6-yl)-6,6a,7,7a-tetrahydro-5H-cyclopropa[h]quinoline-3-carbonitrile]
> 5000 nM | 280 nM | > 5000 nM | – | – | – | C=CC(=O)N1CC2(CCN(c3nc4cc(-c5ccnn5C)ccc4c(-c4ccccc4Cl)c3C)C2)C1 [Example 16-1, 1-(6-(4-(2-chlorophenyl)-3-methyl-7-(1-methyl-1H-pyrazol-5-yl)quinolin-2-yl)-2,6-diazaspiro[3.4]octan-2-yl)prop-2-en-1-one]
> 5000 nM | – | > 5000 nM | 91 nM | – | – | C=CC(=O)N1CC2(CCN(c3nc4c(c(-c5cc(O)ccc5C)c3C#N)COC(C)(C)C4)C2)C1 (single isomer, unassigned) [Example 13-128, 4-(5-hydroxy-2-methylphenyl)-7,7-dimethyl-2-(2-(2-propenoyl)-2,6-diazaspiro[3.4]octan-6-yl)-7,8-dihydro-5H-pyrano[4,3-b]pyridine-3-carbonitrile]
187 nM | – | > 5000 nM | 67 nM | – | – | C=CC(=O)N1CC2(CCN(c3nc4c(c(-c5c(C)ccc6[nH]ncc56)c3C)CCC(C)(C)C4)C2)C1 [Example 2-28, 1-(6-(3,7,7-trimethyl-4-(5-methyl-1H-indazol-4-yl)-5,6,7,8-tetrahydro-2-quinolinyl)-2,6-diazaspiro[3.4]octan-2-yl)-2-propen-1-one]
> 5000 nM | – | > 5000 nM | 554 nM | – | – | C=CC(=O)N1CC2(CCN(c3cn4ncnc4c(-c4c(C)ccc5[nH]ncc45)c3C#N)C2)C1 [Example 1-48, 8-(5-methyl-1H-indazol-4-yl)-6-(2-(2-propenoyl)-2,6-diazaspiro[3.4]octan-6-yl)[1,2,4]triazolo[1,5-a]pyridine-7-carbonitrile]
1330 nM | 60 nM | > 5000 nM | – | – | – | C=CC(=O)N1CC2(CCN(c3nc4cc(-c5ccnn5C)ccc4c(-c4cc(O)ccc4Cl)c3C)C2)C1 [Example 16-9, 1-(6-(4-(2-chloro-5-hydroxyphenyl)-3-methyl-7-(1-methyl-1H-pyrazol-5-yl)-2-quinolinyl)-2,6-diazaspiro[3.4]octan-2-yl)-2-propen-1-one]
761 nM | 112 nM | 3430 nM | – | – | – | C=CC(=O)N1CC2(CCN(c3nc4c(c(-c5c(C)cccc5F)c3C#N)CCC(c3scnc3C)=C4)C2)C1 [Example 23-48, 4-(2-fluoro-6-methylphenyl)-7-(4-methyl-1,3-thiazol-5-yl)-2-(2-(2-propenoyl)-2,6-diazaspiro[3.4]octan-6-yl)-5,6-dihydro-3-quinolinecarbonitrile]
21 nM | – | > 5000 nM | 13 nM | – | – | C=CC(=O)N1CC2(CCN(c3nc4c(c(-c5cc(O)cc6ccccc56)c3C#N)C[C@H]3C[C@@H]4C3(C)C)C2)C1 (single isomer, unassigned) [Example 13-129]
> 5000 nM | – | > 5000 nM | 431 nM | – | – | C=CC(=O)N1CC2(CCN(c3nc4c(c(-c5cc(O)cc6ccccc56)n3)CCCC4)C2)C1 [Example 1-1, 1-(6-(4-(3-hydroxynaphthalen-1-yl)-5,6,7,8-tetrahydroquinazolin-2-yl)-2,6-diazaspiro[3.4]octan-2-yl)prop-2-en-1-one]
> 5000 nM | – | > 5000 nM | 5760 nM | – | – | C=CC(=O)N1CC2(CCN(c3nc4c(c(-c5c(C)ccc6[nH]ncc56)n3)CCCC4)C2)C1 [Example 1-17, 1-(6-(4-(5-methyl-1H-indazol-4-yl)-5,6,7,8-tetrahydro-2-quinazolinyl)-2,6-diazaspiro[3.4]octan-2-yl)-2-propen-1-one]
– | 66 nM | – | – | 561 nM | > 5000 nM | C=CC(=O)N1CC2(CCN(c3nc4c(c(-c5ccccc5Cl)c3C#N)CCC(c3scnc3C)=C4)C2)C1 (single isomer, unassigned) [Example 23-42, (P)-4-(2-chlorophenyl)-7-(4-methyl-1,3-thiazol-5-yl)-2-(2-(2-propenoyl)-2,6-diazaspiro[3.4]octan-6-yl)-5,6-dihydro-3-quinolinecarbonitrile]
684 nM | 36 nM | 1880 nM | – | – | – | C=CC(=O)N1CC2(CCN(c3nc4cc(-n5ccnc5C)ccc4c(-c4ccccc4Cl)c3C#N)C2)C1 [Example 17-3, 4-(2-chlorophenyl)-7-(2-methyl-1H-imidazol-1-yl)-2-(2-(2-propenoyl)-2,6-diazaspiro[3.4]octan-6-yl)-3-quinolinecarbonitrile]
8670 nM | – | 9460 nM | 8460 nM | – | – | C=CC(=O)N1CC2(CCN(c3nc4c(c(-c5cc(O)ccc5Cl)n3)CCCC4)C2)C1 [Example 1-18, 1-(6-(4-(2-chloro-5-hydroxyphenyl)-5,6,7,8-tetrahydro-2-quinazolinyl)-2,6-diazaspiro[3.4]octan-2-yl)-2-propen-1-one]
13400 nM | – | > 50000 nM | 99 nM | – | – | C=CC(=O)N1CC2(CCN(c3nc4c(N5CCN(C)CC5)ccn4c(-c4c(C)ccc5[nH]ncc45)c3C#N)C2)C1 [Example 1-53]
6400 nM | – | 12500 nM | 6830 nM | – | – | C=CC(=O)N1CC2(CCN(c3nc4c(F)cccc4c(-c4c(C)ccc5[nH]ncc45)c3C#N)C2=O)C1 [Example 1-44, 8-fluoro-4-(5-methyl-1H-indazol-4-yl)-2-(5-oxo-2-(2-propenoyl)-2,6-diazaspiro[3,4]octan-6-yl)-3-quinolinecarbonitrile]
